Assay results published in US6723858B2, “Estrogenic compounds as anti-mitotic agents” (The Children's Medical Center Corporation, priority 1993, dated 2004).

Experiments:
tubulin [1] = test: inhibition of tubulin polymerization in vitro (turbidity at 350 nm); type: biochemical; settings: for IC50: read-out: IC50 (concentration required to inhibit tubulin polymerization by 50%), method of Example 1, average ± S.D., obtained graphically
Procedure: Anti-mitotic activity can be evaluated by testing the ability of an estradiol derivative to inhibit tubulin polymerization and microtubule assembly in vitro. Microtubule assembly is followed in a Gilford recording spectrophotometer (model 250 or […]) equipped with electronic temperature controllers. […] The 0.24 ml reaction mixtures are incubated for 15 min. at 37° C. and then chilled on ice. After addition of 10 μl 2.5 mM GTP, the reaction mixture is transferred to a cuvette at 0° C., and a baseline established. At time zero, the temperature controller of the spectrophotometer is set at 37° C. Microtubule assembly is evaluated by increased turbity at 350 nm. […] The 0.24 ml reaction mixtures were incubated for 15 min at 37° C. and chilled on ice. After addition of 10 μl of 2.5 mM GTP the reaction mixtures were transferred to cuvettes held at 0° C., and baselines were established. At time zero the temperature controller was set at 37° C. At the times indicated by the vertical dashed lines the temperature controller was set at the indicated temperatures. […] The 0.24 ml reaction mixtures were incubated for 15 min at 26° C. and chilled on ice. After addition of 10 μl of 10 mM GTP the reaction mixtures were transferred to cuvettes held at 0° C., and baselines were established. At time zero the temperature controller was set at 26° C. At the time indicated by vertical dashed line the temperature controller was set at 0° C.

tubulin [2] = test: inhibition of [3H]colchicine binding to tubulin; settings: 1.0 μM tubulin, 5% DMSO, 10 min at 37° C.; for Percent inhibition ± S.D. of colchicine binding to tubulin: 100 μM inhibitor, 2 μM [3H]colchicine
Procedure: Incubation was for 10 min at 37° C.
Incubation was for 10 min at 37° C. […] S.D., standard deviation.

[3] = system: chick embryo chorioallantoic membrane new blood vessel cells (angiogenesis); test: chick embryo chorioallantoic membrane (CAM) assay; type: in vivo; settings: 100 mg disk (methylcellulose disc) on CAM, after 48 hours
Procedure: Anti-mitotic activity is evaluated in situ by testing the ability of an improved estradiol derivative to inhibit the proliferation of new blood vessel cells (angiogenesis). A suitable assay is the chick embryo chorioallantoic membrane (CAM) assay described by Crum et al. Science 230:1375 (1985). See also, U.S. Pat. No. 5,001,116, hereby incorporated by reference, which describes the CAM assay. Briefly, fertilized chick embryos are removed from their shell on day 3 or 4, and a methylcellulose disc containing the drug is implanted on the chorioallantoic membrane. The embryos are examined 48 hours later and, if a clear avascular zone appears around the methylcellulose disc, the diameter of that zone is measured.

| SMILES | IC50 (tubulin [1]) [µM] | further results |
| --- | --- | --- |
| COc1cc2c(cc1OC)C1CCC3(C)C(O)CCC3C1CC2 (stereo not shown) [2-Methoxyestradiol-3-O-methyl ether] | > 40 | – |
| COc1cc2c(cc1O)CCC1C2CCC2(C)C(O)CCC12 (stereo not shown) [2-Methoxyestradiol] | 1.9 ± 0.2 | inhibition of colchicine binding to tubulin (FIG. 2) (tubulin [2]; 5 μM [3H]colchicine): inhibits colchicine binding to tubulin; Percent inhibition ± S.D. of colchicine binding to tubulin (tubulin [2]): 82 ± 2%; inhibition of tubulin polymerization (FIG. 1) (tubulin [1]; 20-75 μM at 37° C. (A) or 1.0-4.0 μM at 26° C. (B)): inhibition of tubulin polymerization; inhibition of cell mitosis and growth of new blood vessels [3]: inhibit cell mitosis and the growth of new blood vessels |
| COc1ccc2c(c1OC)CCC1C2CCC2(C)C(O)CCC12 (stereo not shown) [4-Methoxyestradiol-3-O-methyl ether] | > 40 | – |
| C[C@]12CC[C@@H]3c4cc(Br)c(O)cc4CC[C@H]3[C@@H]1CC[C@@H]2O [2-Bromoestradiol] | 4.5 ± 0.6 | – |
| COc1cc2c(cc1O)CC[C@@H]1[C@@H]2CC[C@]2(C)C(=O)CC[C@@H]12 [2-Methoxyestrone] | 8.8 ± 1 | Percent inhibition ± S.D. of colchicine binding to tubulin (tubulin [2]): 57 ± 6% |
| COc1ccc(CCc2cc(OC)c(OC)c(OC)c2)cc1O [Dihydrocombretastatin A-4, reference compound] | 0.63 ± 0.03 | – |
| C[C@]12CC[C@@H]3c4ccc(O)cc4CC[C@H]3[C@@H]1C[C@@H](O)[C@@H]2O [Estriol, reference compound] | > 40 | – |
| C[C@]12CC[C@@H]3c4cc(F)c(O)cc4CC[C@H]3[C@@H]1CC[C@@H]2O [2-Fluoroestradiol] | 27 ± 6 | – |
| COc1ccc2c(c1)CC[C@@H]1[C@@H]2CC[C@]2(C)[C@@H](O)CC[C@@H]12 [Estradiol-3-O-methyl ether] | > 40 | – |
| C#C[C@]1(O)CC[C@H]2[C@@H]3CCc4cc(O)ccc4[C@H]3CC[C@@]21C [17-Ethynylestradiol, reference compound] | 10 ± 2 | Percent inhibition ± S.D. of colchicine binding to tubulin (tubulin [2]): 50 ± 7% |
| COc1c(O)ccc2c1CCC1C2CCC2(C)C(O)CCC12 (stereo not shown) [4-Methoxyestradiol] | > 40 | – |
| C#C[C@]1(O)CC[C@H]2[C@@H]3CCc4cc(O)c(OC)cc4[C@H]3CC[C@@]21C [2-Methoxy-17-ethynylestradiol] | > 40 | – |
| COc1cc2c(cc1O)CC[C@@H]1[C@@H]2CC[C@]2(C)[C@@H](O)[C@H](O)C[C@@H]12 [2-Methoxyestriol] | > 40 | – |
